Key:
[1] = test system: common ragweed (Ambrosia elatior); assay: Test C preemergence; type: in vivo; settings: for Plant response rating (0 to 100), Ragweed, Common: visual evaluation after 12 to 14 days
Procedure, shortened: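 Herbicidal effect is a visual 0–100 score (100 = complete control) assigned versus untreated plants, 12 to 14 days after spraying in the greenhouse. Test compounds were applied in a non-phytotoxic, surfactant-containing solvent.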

Sunflower = assay: Test C preemergence; type: in vivo; settings: scale 0 to 100
[2] = preemergence, Rate 31 g/ha, scale 0 to 100
[3] = Rate 125 g/ha, scale 0 to 100, 0 no effect, 100 complete control
[4] = preemergence, Rate 62 g/ha, scale 0 to 100
[5] = preemergence, Rate 250 g/ha, scale 0 to 100, 0 no effect, 100 complete control

| SMILES | Plant response rating, Ragweed, Common ([1]; Preemergence, Rate 500 g/ha, scale 0 to 100) | Plant response rating, Ragweed, Common ([1]; Rate 62 g/ha, scale 0 to 100, 0 no effect, 100 complete control) | Plant response rating, Ragweed, Common [1, 2] | Plant response rating (0 to 100), Ragweed, Common ([1]; preemergence, Rate 250 g/ha) | Plant response rating, Ragweed, Common ([1]; preemergence, Rate 125 g/ha, scale 0 to 100, 0 no effect, 100 complete control) | Plant response rating, Sunflower (Sunflower; Rate 31 g/ha) | Plant response rating, Ragweed, Common [1, 3] | Plant response rating, Ragweed, Common [1, 4] | Plant response rating (0 to 100), Ragweed, Common ([1]; preemergence, Rate 500 g/ha) | Plant response rating, Ragweed, Common [1, 5] | Plant response rating, Sunflower (Sunflower; Rate 62 g/ha) |
| --- | --- | --- | --- | --- | --- | --- | --- | --- | --- | --- | --- |
| CC(C)(C)c1ccn(C2CCN(c3cccc(OC(F)(F)F)c3)C2=O)n1 (stereo not drawn) [Compound 49] | 90 | 0 | 0 | 30 | 30 | 0 |  |  |  |  |  |
| CCOc1cccc(N2CCC(n3ccc(C(C)C)n3)C2=O)c1 (stereo not drawn) [Compound 128] |  |  |  |  |  |  | 100 | 100 | 100 | 100 | 20 |
| CC(C)c1cccc(N2CCC(n3ccc(C(C)(C)C)n3)C2=O)c1 (stereo not drawn) [Compound 111] |  |  |  |  |  |  | 0 | 0 | 0 | 0 | 0 |
| CC(C)OC(=O)c1cccc(N2CCC(n3ccc(C(C)(C)C)n3)C2=O)c1 (stereo not drawn) [Compound 124] |  |  | 0 |  |  | 0 | 0 | 0 |  | 0 | 0 |
| CCCC(C)c1ccn(C2CCN(c3cccc(OC)c3)C2=O)n1 (stereo not drawn) [Compound 99] |  |  |  |  |  |  | 0 | 0 | 0 | 0 | 0 |

Source: US7138361B2, “Herbicidal heterocycles” (E. I. du Pont de Nemours and Company, priority 2000, dated 2006)
